# Earlier results, collected in patent US7749547B2, “Nutritional composition and method for increasing creatine uptake and retention in skeletal muscle, increasing muscle mass and strength, increasing exercise capacity and for aiding recovery following exercise” (priority 2006, dated 2010).
# Experiments:
# [1] = supplemented rats
# [2] = rodents; reduced food intake, enhanced energy expenditure
# [3] = supplementation
# [4] = not given; remark: listed apart in the source
# [5] = healthy volunteers
compound,measurement,setting,value
"O=C(O)CCCCC1CCSS1 (stereo not drawn) [ALA, Alpha Lipoic Acid]","age-related changes in mitochondrial function, accumulated oxidative damage and metabolic rate",[1],improved
same,body weight,[2],profound weight loss
[Cr] [Chromium],lean mass,clinical,increase lean mass
same,body fat,combined with exercise,reduce body fat
same,high density lipoproteins (HDL),"human, in vivo",increase high density lipoproteins
"CN(CC(=O)O)C(=N)N [Creatine, N-methyl-N-guanyl Glycine]",concentration of Creatine in the muscle,[3],increase the concentration of Creatine in the muscle
same,resynthesis of Phosphocreatine,[3],increase in the resynthesis of Phosphocreatine
same,high-intensity exercise performance,[4]; males and females,improved
same,strength and fatigue,[4]; supplemental Creatine,improve strength and reduce fatigue
same,muscle fiber cross sectional area,[4]; supplementation,increases muscle fiber cross sectional area
same,strength and fat-free mass,"[4]; with resistance training, sedentary females and male football players",increased strength and fat-free mass over a placebo
Isomalt,bowel function and metabolic function,[5],promote healthy bowel function without impairing metabolic function
